Data on 21 compounds can be found in patent US20010039287A1, “AROMATIC SULFONE HYDROXAMIC ACID METALLOPROTEASE INHIBITOR” (priority 1997, published 2001).

In general, pIC50 refers to the negative decadic logarithm of the IC50, by convention in mol/L. In general, IC50 refers to the concentration at which inhibition is half-maximal.

pIC50: −log10 of the molar value. Where a name gives a salt, the structure may show the parent alone. Read-outs that look alike come from different tables or passages of the source.

The target of one data set is T1, recombinant human MMP-1 (Homo sapiens, UniProt P03956).
T1 construct: made in house; host or cells: transfected HT-1080 cells (provided by Dr. Harold Welgus, Washington University)
T1 sequence (P03956 100-469): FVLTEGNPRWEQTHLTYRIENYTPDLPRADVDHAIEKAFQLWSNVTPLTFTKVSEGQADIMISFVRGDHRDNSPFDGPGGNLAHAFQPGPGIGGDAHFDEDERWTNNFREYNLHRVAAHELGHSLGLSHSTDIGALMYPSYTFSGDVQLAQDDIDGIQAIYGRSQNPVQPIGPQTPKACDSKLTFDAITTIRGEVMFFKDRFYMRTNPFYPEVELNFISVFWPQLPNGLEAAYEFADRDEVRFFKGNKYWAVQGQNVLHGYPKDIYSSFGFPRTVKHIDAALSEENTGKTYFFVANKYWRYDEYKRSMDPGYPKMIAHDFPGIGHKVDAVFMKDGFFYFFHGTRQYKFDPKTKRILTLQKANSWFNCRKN
Put plainly: biochemical.

In a further data set the target is recombinant human MMP-13 (Homo sapiens, UniProt P45452). Put plainly: biochemical.
A further data set concerns the target recombinant human MMP-9 (Homo sapiens, UniProt P14780). Put plainly: biochemical. The note with it: read-out: MMP-9 IC50.
The test system of another data set is TNFα. Put plainly: Tumor necrosis factor assay: TNFα ELISA on PMA-stimulated U-937 cell supernatant. The note with it: Homo sapiens, U-937, read-out: TNFα Release IC50 in micromolar. In general terms: In an ELISA, binding on a coated surface is turned into a signal by an enzyme label.
The target of another data set is T2, recombinant human MMP-2 (Homo sapiens, UniProt P08253).
T2 sequence (P08253 110-660): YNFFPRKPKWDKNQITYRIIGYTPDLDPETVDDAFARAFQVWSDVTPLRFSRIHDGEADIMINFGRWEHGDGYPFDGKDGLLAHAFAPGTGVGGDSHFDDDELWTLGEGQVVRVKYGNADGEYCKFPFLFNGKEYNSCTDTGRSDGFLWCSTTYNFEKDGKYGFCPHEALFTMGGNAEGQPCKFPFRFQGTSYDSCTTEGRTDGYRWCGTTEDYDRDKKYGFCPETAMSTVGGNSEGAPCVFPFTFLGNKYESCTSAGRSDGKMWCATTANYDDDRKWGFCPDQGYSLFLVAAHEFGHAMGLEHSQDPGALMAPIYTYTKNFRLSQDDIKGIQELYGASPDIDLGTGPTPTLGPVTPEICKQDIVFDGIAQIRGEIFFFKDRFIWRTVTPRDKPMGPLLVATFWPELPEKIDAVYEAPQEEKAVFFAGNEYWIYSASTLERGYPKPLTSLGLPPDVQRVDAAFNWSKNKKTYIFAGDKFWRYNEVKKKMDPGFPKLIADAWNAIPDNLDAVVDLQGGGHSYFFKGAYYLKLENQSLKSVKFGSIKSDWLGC
Nature of the data set: biochemical. The note with it: for pIC50: read-out: MMP-2 IC50.

Details of data set [1]: AUC (0-∞): unit not given beside the values. The note with it: for t½ Hour: Rat Intravenous 20 mpk.
The mark [2] stands for this setting: Inhibition Table A, read-out: MMP-1 IC50.
Setting [3] is: Inhibition Table A, read-out: MMP-13 IC50.
The mark [4] stands for this setting: Inhibition Table B, read-out: MMP-13 IC50.
The mark [5] stands for this setting: Inhibition Table B, read-out: MMP-1 IC50.

recombinant human MMP-9, sequence (P14780 107-707 limits assumed): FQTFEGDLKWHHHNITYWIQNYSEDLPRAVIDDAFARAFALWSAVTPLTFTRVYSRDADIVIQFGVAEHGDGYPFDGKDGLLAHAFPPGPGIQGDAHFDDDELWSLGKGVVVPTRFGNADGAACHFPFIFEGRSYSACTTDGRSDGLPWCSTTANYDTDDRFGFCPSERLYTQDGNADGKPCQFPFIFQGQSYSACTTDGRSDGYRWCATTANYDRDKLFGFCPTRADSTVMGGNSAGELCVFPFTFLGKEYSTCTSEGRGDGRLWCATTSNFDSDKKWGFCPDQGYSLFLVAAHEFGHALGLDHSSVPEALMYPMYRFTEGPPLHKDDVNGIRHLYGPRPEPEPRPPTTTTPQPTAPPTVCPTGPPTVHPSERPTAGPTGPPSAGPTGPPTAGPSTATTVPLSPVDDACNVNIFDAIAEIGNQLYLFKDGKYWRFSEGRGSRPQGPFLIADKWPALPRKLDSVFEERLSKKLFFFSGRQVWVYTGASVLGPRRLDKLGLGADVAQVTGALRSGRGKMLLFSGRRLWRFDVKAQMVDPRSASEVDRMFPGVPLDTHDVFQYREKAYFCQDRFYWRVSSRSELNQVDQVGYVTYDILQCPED

Turning to `O=C(NO)C1(S(=O)(=O)c2ccc(Oc3ccccc3)cc2)CCNCC1` [Example 4], the pIC50 at recombinant human MMP-1 (setting [2]) was 5.96; at recombinant human MMP-13 (setting [3]) it was 9.46; on recombinant human MMP-9 (Inhibition Table A), 8.30; in the data set with TNFα it was less than 4.30; on recombinant human MMP-2 (Inhibition Table A), 9.64.
Turning to `C#CCN1CCC(C(=O)NO)(S(=O)(=O)c2ccc(Oc3ccccc3)cc2)CC1` [Example 6], the negative-log IC50 (pIC50) was 6.49 on recombinant human MMP-1 (setting [2]), 9.60 at recombinant human MMP-13 (setting [3]), less than 4.30 with TNFα and 9.82 at recombinant human MMP-2 (Inhibition Table A).
For the compound `C#CCN1CCC(C(=O)NO)(S(=O)(=O)c2ccc(Sc3ccccc3)cc2)CC1` [Example 9], the negative-log IC50 (pIC50) at recombinant human MMP-1 (setting [2]) is 5.05; with TNFα it was less than 4.30; on recombinant human MMP-2 (Inhibition Table A) it was 9.70.
For the compound `C#CCN1CCC(C(=O)NO)(S(=O)(=O)c2ccc(Oc3ccc4c(c3)OCO4)cc2)CC1` [Example 10], the pIC50 at recombinant human MMP-1 (setting [2]) is 5.80; on recombinant human MMP-13 (setting [3]), 9.40; in the data set on TNFα, less than 4.30.
In the case of `C#CCN1CCC(C(=O)NO)(S(=O)(=O)c2ccc(SC3CCCCC3)cc2)CC1` [Example 13], the negative-log IC50 (pIC50) at recombinant human MMP-13 (setting [3]) is 9.22; in the data set on TNFα, less than 4.30; at recombinant human MMP-2 (Inhibition Table A) it was 9.40.
`O=C(NO)C1(S(=O)(=O)c2ccc(Sc3ccc(F)cc3)cc2)CCN(C2CC2)CC1` [Example 27]: the pIC50 on recombinant human MMP-1 (setting [2]) was less than 5.00; at recombinant human MMP-13 (setting [3]) it was 9.35; on recombinant human MMP-9 (Inhibition Table A), 8.40; with TNFα it was less than 4.10; at recombinant human MMP-2 (Inhibition Table A) it was 9.40.
Consider `CN1CCC(C(=O)NO)(S(=O)(=O)c2ccc(Sc3ccccc3)cc2)CC1.Cl` [Example 33, N-hydroxy-1-methyl-4-[[4-(phenylthio)phenyl]sulfonyl]-4-piperidinecarboxamide, Monohydrochloride], for which the negative logarithm of the IC50 (pIC50) was less than 5.00 on recombinant human MMP-1, 9.10 on recombinant human MMP-13 (setting [4]), 8.03 on recombinant human MMP-9 (Inhibition Table B) and 9.30 at recombinant human MMP-2 (Inhibition Table B). Moreover, in data set [1], the “t½ Hour” value was 1.91 h.
For `COCCN1CCC(C(=O)NO)(S(=O)(=O)c2ccc(Sc3ccccc3)cc2)CC1` [Example 35, N—hydroxy-1-(2-methoxyethyl)-4-[[4-(phenylthio)phenyl]-sulfonyl]-4-piperidinecarboxamide, Monohydrochloride], the pIC50 was less than 5.00 at recombinant human MMP-1 (setting [5]); 9.30 at recombinant human MMP-13 (setting [4]); 8.52 at recombinant human MMP-9 (Inhibition Table B); less than 4.10 in the data set on TNFα; 9.52 at recombinant human MMP-2 (Inhibition Table B).
For the compound `CC(=O)N1CCC(C(=O)NO)(S(=O)(=O)c2ccc(Sc3ccccc3)cc2)CC1.Cl` [Example 36, 1-acetyl-N-hydroxy-4-[[4-(phenylthio)phenyl]sulfonyl]-4-piperidinecarboxamide, Monohydrochloride], the pIC50 was 5.14 at recombinant human MMP-1 (setting [5]), 9.22 at recombinant human MMP-13 (setting [4]), 8.10 at recombinant human MMP-9 (Inhibition Table B) and 9.40 at recombinant human MMP-2 (Inhibition Table B). Moreover, in data set [1], the “t½ Hour” value is 0.65 h.
As for `Cl.O=C(NO)C1(S(=O)(=O)c2ccc(Oc3ccc(-n4cncn4)cc3)cc2)CCS(=O)(=O)CC1` [Example 53, Tetrahydro-N-hydroxy-4-[[4-[4-(1H-1,2,4-triazol-1-yl)phenoxy]-phenyl]-sulfonyl]-2H-thiopyran-4-carboxamide 1,1-dioxide, Monohydrochloride], the pIC50 at recombinant human MMP-1 (setting [5]) is less than 5.00; at recombinant human MMP-13 (setting [4]), 8.82; at recombinant human MMP-9 (Inhibition Table B), 7.04; at recombinant human MMP-2 (Inhibition Table B) it was 9.52. In data set [1], the “t½ Hour” value was found to be 0.97 h.
For `O=C(NO)C1(S(=O)(=O)c2ccc(Oc3ccc(OC(F)(F)F)cc3)cc2)CCOCC1` [Example 69], in data set [1] (rat, in vivo), the “AUC (0-∞)” value stood at 63.78 and the “Blood Level @ 3 min” value came out at 44.00 µg/mL. Further, the “Blood Level @ 3 min” value in data set [1] (rat, in vivo, iv, 20 mg/kg) was 44.00 µg/mL. Also, the negative logarithm of the IC50 (pIC50) in the data set with TNFα was less than 4.10.
Regarding `O=C(NO)C1(S(=O)(=O)c2ccc(Sc3ccc(OC(F)(F)F)cc3)cc2)CCOCC1` [Example 73, tetrahydro-N-hydroxy-4-[[4-[4-(trifluoromethoxy)phenylthio]-phenyl]-sulfonyl]-2H-pyran-4-carboxamide], the pIC50 was 5.94 on recombinant human MMP-1 (setting [5]), more than 10.00 at recombinant human MMP-13 and 9.70 at recombinant human MMP-9 (Inhibition Table B). Moreover, in data set [1] (rat, in vivo, po, 20 mg/kg), the “Blood Level @ 6 hr” value was 0.372 µg/mL. The concentration for half-maximal inhibition (IC50) at recombinant human MMP-2 (MMP-2 IC50 (nM)) was less than 0.1 nM.
In the case of `Cl.O=C(NO)C1(S(=O)(=O)c2ccc(Oc3ccc(Cl)cc3)cc2)CCNCC1` [Example 93, 4-[[4-(4-chlorophenoxy)-phenyl]sulfonyl]-N-hydroxy-4-piperidinecarboxamide, Monohydrochloride], the negative logarithm of the IC50 (pIC50) at recombinant human MMP-1 (setting [5]) is 5.10; on recombinant human MMP-13 (setting [4]), 9.15; at recombinant human MMP-9 (Inhibition Table B) it was 8.46; at recombinant human MMP-2 (Inhibition Table B), 9.40. For the same compound, in data set [1], the “t½ Hour” value was 1.81 h.
As to `O=C(NO)C1(S(=O)(=O)c2ccc(Sc3ccccc3)cc2)CCOCC1` [Example 95, Tetrahydro-N-hydroxy-4-[[4-(phenylthio)phenyl]sulfonyl]-2H-pyran-4-carboxamide], the negative-log IC50 (pIC50) at recombinant human MMP-1 (setting [5]) was less than 5.00; on recombinant human MMP-13 (setting [4]) it was 9.30; on recombinant human MMP-9 (Inhibition Table B), 8.44; with TNFα it was less than 4.30; on recombinant human MMP-2 (Inhibition Table B), 9.00. The “t½ Hour” value in data set [1] stood at 1.06 h.
For `O=C(NO)C1(S(=O)(=O)c2ccc(Sc3ccc(F)cc3)cc2)CCOCC1` [Example 103, 4-[[4-[(4-fluorophenyl)-thio]phenyl]sulfonyl]tetrahydro-N-hydroxy-2H-pyran-4-carboxamide], the negative logarithm of the IC50 (pIC50) on recombinant human MMP-1 (setting [5]) was less than 5.00; on recombinant human MMP-13 (setting [4]), 9.15; on recombinant human MMP-9 (Inhibition Table B), 8.00; at recombinant human MMP-2 (Inhibition Table B), 9.10. Further, the “t½ Hour” value in data set [1] came to 1.10 h.
Taken in the same sequence, the figures for `Cl.O=C(NO)C1(S(=O)(=O)c2ccc(Sc3ccncc3)cc2)CCOCC1` [Example 104, Tetrahydro-N-hydroxy-4-[[4-(4-pyridinylthio)phenyl]sulfonyl]-2H-pyran-4-carboxamide, Monohydrochloride] were less than 5.00, 9.19, 7.37, 8.82 and 0.66 h.
Taken in the same sequence, the figures for `O=C(NO)C1(S(=O)(=O)c2ccc(Oc3ccccc3)cc2)CCSCC1` [Example 109] were 6.30, 9.52, 9.15, 10.00 and 1.12 h.
Taken in the same sequence, the figures for `O=C(O)CNc1ccc(Oc2ccc(S(=O)(=O)C3(C(=O)NO)CCSCC3)cc2)cc1` [Example 117, tetrahydro-N-hydroxy-4-[[4-[4-hydroxyphenyl Glycine)]phenyl] Sulfonyl 2H-thiopyran-4-carboxamide] were 5.43, 8.32, 7.34, 9.22 and 0.78 h.
Regarding `NCC(=O)Nc1ccc(Sc2ccc(S(=O)(=O)C3(C(=O)NO)CCSCC3)cc2)cc1` [Example 118, tetrahydro-N-hydroxy-4-[[4-[4-hydroxyphenylglycine))phenyl] Sulfonyl 2H-thiopyran-4-carboxamide], the negative-log IC50 (pIC50) was 5.55 on recombinant human MMP-1 (setting [5]), 9.10 at recombinant human MMP-13 (setting [4]), 7.30 at recombinant human MMP-9 (Inhibition Table B) and 9.52 on recombinant human MMP-2 (Inhibition Table B). Moreover, in data set [1], the “t½ Hour” value turned out to be 1.85 h.
Taken in the same sequence, the figures for `CC(C)c1ccc(Oc2ccc(S(=O)(=O)C3(C(=O)NO)CCOCC3)cc2)cc1` [Example 125] were less than 5.00, 9.30, 8.15, 9.40 and 0.73 h.
Turning to `O=C(NO)C1(S(=O)(=O)c2ccc(Oc3ccc(C(F)(F)F)cc3)cc2)CCOCC1` [Example 379], in data set [1], the “t½ Hour” value turned out to be 1.74 h. Besides, the negative-log IC50 (pIC50) in the data set on TNFα was 4.10.
